According to PubChem BioAssay AID1259407 (Chemical Carcinogenesis Research Information System (CCRIS), 2018):
Activity calls are given as the source filed them. The rule behind the calls is not given here.

System: CCRIS mutagenicity, Ames/micronucleus/aberration tests
Test: CCRIS mutagenicity studies

Question: `CN(C)CCNC(=O)c1cccc2nc(-c3ccccc3)oc12` was tested. Which mutagenic call (Test System: AMES SALMONELLA TYPHIMURIUM, Strain/Indicator: TA1537, Metabolic Activation: NONE, Method: STANDARD PLATE) did it give?
Answer: The mutagenic call was “inactive; negative”.

Question: With `O=CC=O` as the molecule, how does the mutagenic call (End Point: IN VITRO CHROMOSOMAL ABERRATIONS, Test System: CHL CELLS, Metabolic Activation: NONE) read?
Answer: The mutagenic call was “active; positive (structural and ploidy changes)”.

Question: What about the mutagenic call (End Point: IN VITRO CHROMOSOMAL ABERRATIONS, Test System: CHL CELLS, Metabolic Activation: RAT, LIVER, S-9, SODIUM PHENOBARBITAL AND 5,6-BENZOFLAVONE) of the same molecule?
Answer: Its mutagenic call is “active; positive (structural and ploidy changes)”.

Question: What about the mutagenic call (Test System: AMES SALMONELLA TYPHIMURIUM, Strain/Indicator: TA97, Metabolic Activation: NONE, Method: PREINCUBATION) of the same molecule?
Answer: The mutagenic call was “inactive; negative”.

Question: What about the mutagenic call (Test System: AMES SALMONELLA TYPHIMURIUM, Strain/Indicator: TA98, Metabolic Activation: RAT, LIVER, S-9, AROCLOR 1254, Method: PREINCUBATION) of the same molecule?
Answer: Its mutagenic call is “active; positive”.

Question: And the mutagenic call (Test System: AMES SALMONELLA TYPHIMURIUM, Strain/Indicator: TA100, Metabolic Activation: NONE)?
Answer: Its mutagenic call is “active; positive”.

Question: What about the mutagenic call (Test System: AMES SALMONELLA TYPHIMURIUM, Strain/Indicator: TA100, Metabolic Activation: NONE, Method: STANDARD PLATE) of the same molecule?
Answer: The mutagenic call was “active; positive”.

Question: What about the mutagenic call (Test System: AMES SALMONELLA TYPHIMURIUM, Strain/Indicator: TA100, Metabolic Activation: RAT LIVER S-9, PHENOBARBITAL AND BETA-NAPHTHOFLAVONE, Method: PREINCUBATION) of the same molecule?
Answer: The mutagenic call was “active; positive”.

Question: And the mutagenic call (Test System: AMES SALMONELLA TYPHIMURIUM, Strain/Indicator: TA100, Metabolic Activation: RAT, LIVER, S-9, AROCLOR 1254, Method: PREINCUBATION)?
Answer: The mutagenic call was “active; positive”.

Question: And the mutagenic call (Test System: AMES SALMONELLA TYPHIMURIUM, Strain/Indicator: TA100, Metabolic Activation: RAT, LIVER, S-9, PHENOBARBITAL AND 5,6-BENZOFLAVONE, Method: PREINCUBATION)?
Answer: The mutagenic call was “active; positive”.

Question: And the mutagenic call (Test System: AMES SALMONELLA TYPHIMURIUM, Strain/Indicator: TA100, Metabolic Activation: S-9)?
Answer: The mutagenic call was “active; positive”.

Question: What about the mutagenic call (Test System: AMES SALMONELLA TYPHIMURIUM, Strain/Indicator: TA102, Metabolic Activation: RAT, LIVER, S-9, AROCLOR 1254, Method: PREINCUBATION) of the same molecule?
Answer: The mutagenic call was “active; positive”.

Question: And the mutagenic call (Test System: AMES SALMONELLA TYPHIMURIUM, Strain/Indicator: TA102, Metabolic Activation: RAT, LIVER, S-9, AROCLOR 1254, Method: STANDARD PLATE)?
Answer: The mutagenic call was “active; positive”.

Question: And the mutagenic call (Test System: AMES SALMONELLA TYPHIMURIUM, Strain/Indicator: TA102, Metabolic Activation: RAT, LIVER, S-9, PHENOBARBITAL AND 5,6-BENZOFLAVONE, Method: PREINCUBATION)?
Answer: Its mutagenic call is “active; positive”.

Question: And the mutagenic call (Test System: AMES SALMONELLA TYPHIMURIUM, Strain/Indicator: TA104, Metabolic Activation: NONE, Method: PREINCUBATION)?
Answer: The mutagenic call was “active; positive”.

Question: What about the mutagenic call (Test System: AMES SALMONELLA TYPHIMURIUM, Strain/Indicator: TA104, Metabolic Activation: RAT, LIVER, S-9, PHENOBARBITAL AND 5,6-BENZOFLAVONE, Method: PREINCUBATION) of the same molecule?
Answer: Its mutagenic call is “active; positive”.

Question: What about the mutagenic call (Test System: AMES SALMONELLA TYPHIMURIUM, Strain/Indicator: TA1535, Metabolic Activation: RAT LIVER S-9, PHENOBARBITAL AND BETA-NAPHTHOFLAVONE, Method: PREINCUBATION) of the same molecule?
Answer: Its mutagenic call is “active; positive”.

Question: What about the mutagenic call (Test System: AMES SALMONELLA TYPHIMURIUM, Strain/Indicator: TA1537, Metabolic Activation: NONE, Method: PREINCUBATION) of the same molecule?
Answer: The mutagenic call was “active; positive”.

Question: And the mutagenic call (Test System: AMES SALMONELLA TYPHIMURIUM, Strain/Indicator: TA1537, Metabolic Activation: RAT LIVER S-9, PHENOBARBITAL AND BETA-NAPHTHOFLAVONE, Method: PREINCUBATION)?
Answer: Its mutagenic call is “inactive; negative”.

Question: And the mutagenic call (Test System: AMES SALMONELLA TYPHIMURIUM, Strain/Indicator: TA2638A, Metabolic Activation: RAT LIVER S-9, AROCLOR 1254, Method: STANDARD PLATE)?
Answer: Its mutagenic call is “active; positive”.

Question: What about the mutagenic call (Test System: AMES SALMONELLA TYPHIMURIUM, Strain/Indicator: TA7001, Metabolic Activation: NONE, Method: PREINCUBATION) of the same molecule?
Answer: The mutagenic call was “inactive; negative”.

Question: What about the mutagenic call (Test System: AMES SALMONELLA TYPHIMURIUM, Strain/Indicator: TA7002, Metabolic Activation: NONE, Method: PREINCUBATION) of the same molecule?
Answer: Its mutagenic call is “inactive; negative”.

Question: And the mutagenic call (Test System: AMES SALMONELLA TYPHIMURIUM, Strain/Indicator: TA7003, Metabolic Activation: NONE, Method: PREINCUBATION)?
Answer: Its mutagenic call is “inactive; negative”.

Question: And the mutagenic call (Test System: AMES SALMONELLA TYPHIMURIUM, Strain/Indicator: TA7004, Metabolic Activation: NONE, Method: PREINCUBATION)?
Answer: Its mutagenic call is “active; positive”.

Question: And the mutagenic call (Test System: AMES SALMONELLA TYPHIMURIUM, Strain/Indicator: TA7005, Metabolic Activation: NONE, Method: PREINCUBATION)?
Answer: Its mutagenic call is “active; positive”.

Question: And the mutagenic call (Test System: AMES SALMONELLA TYPHIMURIUM, Strain/Indicator: TA7006, Metabolic Activation: NONE, Method: PREINCUBATION)?
Answer: Its mutagenic call is “active; positive”.

Question: What about the mutagenic call (Test System: E. COLI, Strain/Indicator: W3110, Metabolic Activation: NONE, Method: PREINCUBATION) of the same molecule?
Answer: The mutagenic call was “active; positive”.

Question: And the mutagenic call (Test System: E. COLI, Strain/Indicator: WP2UVRA, Metabolic Activation: NONE, Method: PREINCUBATION)?
Answer: Its mutagenic call is “active; positive”.

Question: What about the mutagenic call (Test System: E. COLI, Strain/Indicator: WP2UVRA, Metabolic Activation: RAT LIVER S-9, PHENOBARBITAL AND BETA-NAPHTHOFLAVONE, Method: PREINCUBATION) of the same molecule?
Answer: The mutagenic call was “active; positive”.

Question: What about the mutagenic call (Test System: MOUSE LYMPHOMA, Strain/Indicator: L5178Y (TK+/TK-), Metabolic Activation: NONE, Method: SUSPENSION/PLATE) of the same molecule?
Answer: Its mutagenic call is “active; positive”.
